Activity calls are given as the source filed them.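 Rule for the calls: active = parasite count per well reduced by over 3 SD from the mean, with host cell number above 80% of untreated; inactive = the rest.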
System: L. donovani amastigotes in THP-1 macrophages, DAPI imaging, 72 h
Experiment: antileishmanial activity in infected macrophages – imaging, THP-1 host macrophages, single concentration (AID 977614);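 note: signal is the parasite per host cell ratio from DAPI stained kinetoplasts and nuclei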

Row | SMILES | AC50
1 | Cc1noc(C)c1S(=O)(=O)N(C)C[C@H]1OCc2cnnn2CCCC(=O)N([C@@H](C)CO)C[C@H]1C | > 10 µM (inactive)
2 | CNC[C@H]1OCc2cn(nn2)CCCC(=O)N([C@H](C)CO)C[C@H]1C | > 10 µM (inactive)
3 | COCC(=O)N1[C@H](CNC(=O)c2ccccn2)[C@H](c2ccccc2)[C@@H]1CO | > 10 µM (inactive)
4 | O=C(CC1CC1)N1[C@H](CO)[C@@H]2c3ccccc3N(S(=O)(=O)c3ccccc3F)C[C@@H]21 | > 10 µM (inactive)
5 | CCc1csc(N2[C@H](CO)[C@H](c3ccccc3)[C@@H]2CNC)n1 | > 10 µM (inactive)
6 | CC(=O)N1[C@@H](CO)[C@@H]2c3ccccc3N(C(=O)c3ccc(F)cc3)C[C@@H]21 | > 10 µM (inactive)
7 | O=C(Cc1ccccc1)N1C[C@@H]2[C@H](c3ccccc31)[C@@H](CO)N2S(=O)(=O)c1ccccc1 | > 10 µM (inactive)
8 | COc1ccc(CN2[C@@H]3CNc4ccccc4[C@@H]3[C@@H]2CO)cc1 | > 10 µM (inactive)
9 | C[C@H]1CN([C@@H](C)CO)C(=O)CCCn2cc(nn2)CO[C@H]1CN(C)S(=O)(=O)c1cccc(C#N)c1 | > 10 µM (inactive)
10 | O=C(Cc1ccccc1)NC[C@H]1N[C@H](CO)[C@@H]1c1ccc(C2=CCCC2)cc1 | > 10 µM (inactive)
11 | O=C(c1ccccn1)N1C[C@@H]2[C@H](c3ccccc31)[C@@H](CO)N2C(=O)C1CCCCC1 | > 10 µM (inactive)
12 | COc1ccccc1S(=O)(=O)N(C)C[C@H]1OCc2cn(nn2)CCCC(=O)N([C@H](C)CO)C[C@@H]1C | > 10 µM (inactive)
13 | CCCNC(=O)N1C[C@@H]2[C@H](c3ccccc31)[C@H](CO)N2C(=O)Nc1ccccc1F | > 10 µM (inactive)
14 | CC(=O)NC[C@@H]1[C@@H](c2ccc(C3=CCCC3)cc2)[C@H](CO)N1Cc1cccnc1 | > 10 µM (inactive)
15 | COCC(=O)N(C[C@@H]1[C@@H](c2ccccc2)[C@@H](CO)N1C(=O)NC(C)C)C(C)C | > 10 µM (inactive)
16 | C[C@@H]1CN([C@@H](C)CO)C(=O)CCCn2nncc2CO[C@@H]1CN(C)C(=O)Oc1cccc2ccccc12 | > 10 µM (inactive)
17 | CC(=O)N1[C@H](CO)[C@@H](c2ccccc2)[C@@H]1CN(CC1CCC1)C(=O)CN(C)C | > 10 µM (inactive)
18 | C[C@H](CO)N1C[C@H](C)[C@@H](CN(C)C(=O)Nc2cccc(C(F)(F)F)c2)OCc2cn(nn2)CCCC1=O | > 10 µM (inactive)
19 | O=C(c1ccccc1F)N1C[C@H]2[C@@H](c3ccccc31)[C@H](CO)N2C(=O)Nc1ccccc1 | > 10 µM (inactive)
20 | O=C(NC[C@H]1[C@@H](c2ccccc2)[C@@H](CO)N1C(=O)C1CCC1)NC1CCCC1 | > 10 µM (inactive)
21 | O=C(c1ccc2c(c1)OCO2)N1C[C@H]2[C@@H](c3ccccc31)[C@H](CO)N2C(=O)CC1CC1 | > 10 µM (inactive)
22 | CC(=O)NC[C@H]1[C@@H](c2ccc(C#CC(C)C)cc2)[C@@H](CO)N1Cc1ccccn1 | > 10 µM (inactive)
23 | C[C@@H]1CN([C@@H](C)CO)C(=O)CCCn2nncc2CO[C@@H]1CN(C)Cc1ccccc1C(=O)O | > 10 µM (inactive)
24 | C[C@@H]1CN([C@H](C)CO)C(=O)CCCn2nncc2CO[C@H]1CN(C)C(=O)Nc1ccccc1C(F)(F)F | > 10 µM (inactive)
25 | O=C(NC[C@@H]1[C@@H](c2ccccc2)[C@@H](CO)N1C(=O)C1CCC1)NC1CCCC1 | > 10 µM (inactive)
26 | O=C(NC[C@H]1[C@H](c2ccccc2)[C@@H](CO)N1Cc1ccccn1)C1CCCC1 | > 10 µM (inactive)

Row | SMILES | AC50
27 | O=C(C1CCC1)N1C[C@H]2[C@@H](c3ccccc31)[C@@H](CO)N2C(=O)Nc1cccc(F)c1 | > 10 µM (inactive)
28 | COc1cccc(NC(=O)N2[C@@H](CO)[C@@H](c3ccccc3)[C@@H]2CNCC(C)C)c1 | > 10 µM (inactive)
29 | O=S(=O)(NC[C@@H]1[C@H](c2ccccc2)[C@@H](CO)N1CC1CC1)c1ccccc1 | > 10 µM (inactive)
30 | CCN(C[C@H]1N[C@H](CO)[C@@H]1c1ccccc1)C(=O)c1ccncc1 | > 10 µM (inactive)
31 | C[C@@H]1CN([C@H](C)CO)C(=O)CCCn2nncc2CO[C@@H]1CN(C)C(=O)CCC(F)(F)F | > 10 µM (inactive)
32 | CCC(=O)N(CC(C)C)C[C@H]1[C@H](c2ccccc2)[C@@H](CO)N1C(=O)C1CCC1 | > 10 µM (inactive)
33 | C[C@@H]1CN([C@@H](C)CO)C(=O)CCCn2cc(nn2)CO[C@H]1CN(C)C(=O)Nc1cccc(C(F)(F)F)c1 | > 10 µM (inactive)
34 | CCC(=O)N1[C@H](CO)[C@@H]2c3ccccc3N(S(=O)(=O)c3ccc(F)cc3)C[C@@H]21 | > 10 µM (inactive)
35 | COCC(=O)N1[C@H](CO)[C@H]2c3ccccc3N(C(=O)Nc3ccccc3Cl)C[C@H]21 | > 10 µM (inactive)
36 | O=C(NC[C@H]1[C@H](c2ccccc2)[C@@H](CO)N1C(=O)Cc1ccncc1)C1CCC1 | > 10 µM (inactive)
37 | O=C(NC[C@@H]1[C@H](c2ccccc2)[C@H](CO)N1Cc1ccccn1)C1CCCC1 | > 10 µM (inactive)
38 | C/C=C/c1ccc([C@@H]2[C@@H](CO)N[C@@H]2CN(CC(C)C)C(=O)c2ccccn2)cc1 | > 10 µM (inactive)
39 | C[C@H]1CN([C@@H](C)CO)C(=O)CCCn2cc(nn2)CO[C@@H]1CN(C)S(=O)(=O)c1ccc(-n2cccn2)cc1 | > 10 µM (inactive)
40 | CCC(=O)N1[C@H](CO)[C@H](c2ccc(C#CC3(O)CCCC3)cc2)[C@@H]1CNC(C)=O | > 10 µM (inactive)
41 | C[C@@H]1CN([C@H](C)CO)C(=O)CCCn2cc(nn2)CO[C@@H]1CN(C)C(=O)Nc1ccc2c(c1)OCO2 | > 10 µM (inactive)
42 | COc1ccc(NC(=O)N(C)C[C@@H]2OCc3cnnn3CCCC(=O)N([C@@H](C)CO)C[C@@H]2C)c(OC)c1 | > 10 µM (inactive)
43 | C[C@@H]1CN([C@H](C)CO)C(=O)CCCn2nncc2CO[C@@H]1CN(C)C(=O)Nc1cccc(Oc2ccccn2)c1 | > 10 µM (inactive)
44 | O=C(c1ccccn1)N1C[C@@H]2[C@H](c3ccccc31)[C@H](CO)N2C(=O)C1CCCCC1 | > 10 µM (inactive)
45 | CN(C[C@H]1N[C@H](CO)[C@@H]1c1ccc(-c2cccnc2)cc1)C(=O)NC1CCCC1 | > 10 µM (inactive)
46 | CC(C)N(C[C@H]1[C@@H](c2ccccc2)[C@H](CO)N1S(C)(=O)=O)C(=O)CN(C)C | > 10 µM (inactive)
47 | C[C@H](CO)N1C[C@H](C)[C@H](CN(C)C(=O)Nc2cccc3ccccc23)OCc2cn(nn2)CCCC1=O | > 10 µM (inactive)
48 | O=C(NC[C@H]1[C@H](c2ccccc2)[C@@H](CO)N1Cc1cccnc1)c1ccccn1 | > 10 µM (inactive)
49 | C[C@H](CO)N1C[C@H](C)[C@@H](CN(C)C(=O)Nc2cccc(Oc3ccccn3)c2)OCc2cnnn2CCCC1=O | > 10 µM (inactive)
50 | C[C@@H]1CN([C@H](C)CO)C(=O)CCCn2nncc2CO[C@@H]1CN(C)C(=O)Oc1cccc2ccccc12 | > 10 µM (inactive)
51 | CC(=O)N1[C@H](CO)[C@H](c2ccccc2)[C@@H]1CN(C)S(=O)(=O)c1ccccc1 | > 10 µM (inactive)
52 | C[C@H](CO)N1C[C@H](C)[C@@H](CN(C)Cc2ccc3c(c2)OCCN3C)OCc2cnnn2CCCC1=O | > 10 µM (inactive)

Row | SMILES | AC50
53 | COc1ccccc1CN1[C@@H]2CN(C(=O)c3cccnc3)c3ccccc3[C@@H]2[C@@H]1CO | > 10 µM (inactive)
54 | O=S(=O)(c1ccccc1)N1[C@@H](CO)[C@@H]2c3ccccc3NC[C@@H]21 | > 10 µM (inactive)
55 | C[C@H](CO)N1C[C@H](C)[C@H](CN(C)C(=O)c2cc(-c3ccccc3)on2)OCc2cnnn2CCCC1=O | > 10 µM (inactive)
56 | COc1ccccc1NC(=O)N1C[C@@H]2[C@H](c3ccccc31)[C@H](CO)N2CC1CCOCC1 | > 10 µM (inactive)
57 | CN1C[C@H]2[C@@H](c3ccccc31)[C@H](CO)N2S(=O)(=O)c1ccccc1 | > 10 µM (inactive)
58 | C[C@@H]1CN([C@H](C)CO)C(=O)CCCn2nncc2CO[C@@H]1CN(C)C(=O)c1cc(-c2ccccc2)on1 | > 10 µM (inactive)
59 | CC(=O)N1[C@@H](CO)[C@@H](c2ccccc2)[C@@H]1CN(CC(C)C)C(=O)c1ccccn1 | > 10 µM (inactive)
60 | CCS(=O)(=O)N(C)C[C@@H]1N[C@H](CO)[C@@H]1c1ccc(-c2ccccc2F)cc1 | > 10 µM (inactive)
61 | O=C(CC(F)(F)F)N1C[C@H]2[C@@H](c3ccccc31)[C@@H](CO)N2Cc1cccnc1 | > 10 µM (inactive)
62 | CN(Cc1ccccc1F)C[C@H]1[C@@H](c2ccccc2)[C@@H](CO)N1S(C)(=O)=O | > 10 µM (inactive)
63 | C[C@@H]1CN([C@H](C)CO)C(=O)CCCn2nncc2CO[C@@H]1CN(C)S(=O)(=O)c1ccc(Oc2ccccc2)nc1 | > 10 µM (inactive)
64 | CC(=O)N1[C@H](CO)[C@@H](c2ccccc2)[C@@H]1CN(CC(C)C)C(=O)c1ccccn1 | > 10 µM (inactive)
65 | CCCC#Cc1ccc([C@H]2[C@@H](CO)N(C(=O)NC(C)C)[C@H]2CNC(C)=O)cc1 | > 10 µM (inactive)
66 | C[C@@H]1CN([C@@H](C)CO)C(=O)CCCn2nncc2CO[C@@H]1CN(C)C(=O)Nc1ccnc(N2CCOCC2)c1 | > 10 µM (inactive)
67 | C[C@H](CO)N1C[C@H](C)[C@H](CN(C)S(=O)(=O)c2ccc3c(c2)OCCCO3)OCc2cnnn2CCCC1=O | > 10 µM (inactive)
68 | COc1ccc(C(=O)N2C[C@H]3[C@@H](c4ccccc42)[C@@H](CO)N3C(=O)NC(C)C)cc1 | > 10 µM (inactive)
69 | COc1ccccc1CN1[C@H](CO)[C@H]2c3ccccc3N(C(=O)c3cccnc3)C[C@H]21 | > 10 µM (inactive)
70 | CC(=O)N1C[C@@H]2[C@H](c3ccccc31)[C@H](CO)N2Cc1ccc(Cl)cc1 | > 10 µM (inactive)
71 | CCN(C[C@H]1[C@H](c2ccccc2)[C@H](CO)N1C(C)=O)C(=O)NC1CCCC1 | > 10 µM (inactive)
72 | O=C(c1ccccc1F)N1C[C@@H]2[C@H](c3ccccc31)[C@@H](CO)N2Cc1ccc2c(c1)OCO2 | > 10 µM (inactive)
73 | CC(C)CN(C[C@H]1N[C@H](CO)[C@@H]1c1ccccc1)C(=O)C1CCCCC1 | > 10 µM (inactive)
74 | CC(=O)N1[C@H](CO)[C@H](c2ccccc2)[C@@H]1CN(C(=O)c1ccccc1F)C(C)C | > 10 µM (inactive)
75 | O=C(Cc1cccnc1)N1[C@@H](CO)[C@@H](c2ccccc2)[C@@H]1CNCC1CCC1 | > 10 µM (inactive)
76 | C[C@H](CO)N1C[C@H](C)[C@@H](CN(C)C(=O)Nc2ccnc(N3CCOCC3)c2)OCc2cnnn2CCCC1=O | > 10 µM (inactive)

Reference: PubChem BioAssay AID977614 (Broad Institute, 2014)
